According to patent US12329149B2, “Apparatus and methods for irradiating organ perfusates” (University Health Network, priority 2017, dated 2025):

Columns and labels:
HCV = test: EVLP of HCV+ human donor lungs with light therapy, viral load by RealTime PCR
Procedure: (§1) Human Lung Studies: effect of EVLP and light therapies into HCV titers: In order to evaluate the effect of EVLP itself and also as a platform for light-based therapies against HCV titers in the lung tissue and perfusate solution, 9 rejected human lungs from NAT+ HCV donors. Donor lungs were recovered using standard protocols and flushed with cold Low-Potassium Dextran (LPD) solution and preserved at 4° C. as routine clinical practice. Following the pre-EVLP flush, the lungs were placed in 2 independent EVLP circuits for 9 hours. One lung was the control group (standard EVLP protocol, (n=9), whereas the other lung was randomly subjected to different treatment conditions (n=3, each) (FIG. 13A): (1) Intense lung wash (replacement of perfusate solution and circuit after 3 h of EVLP); (2) Ultra Violet C (UVC) light (260 nm, 4 W) applied to EVLP perfusate; (3) Photodynamic Therapy (PDT), using Methylene Blue (MB) diluted in the perfusion solution (1 umol/L) associated with red light irradiation (630 nm, 20 mW/cm^2). The advantage of such design is that both control and treated lungs come from the same donor (same virus load as baseline). Tissue biopsies were collected from lower, and upper lobes of the lungs at baseline and every 3 h during perfusion and perfusate samples were collected hourly. All samples were assessed for viral load quantification using RealTime PCR assay. The results were normalized for percentage of viral load decrease. To translate the application of light therapies to an EVLP system, a specific device suitable to be inserted inline in the EVLP circuit where different light wavelengths could be applied to treat the perfusion solution.

[1] = Ex vivo lung function during 9 hours of EVLP of human donor lungs; settings: PDT (MB 1 umol/L + red light) applied to circuit, 9 hours EVLP
Procedure: as §1, with “The results were normalized for percentage of viral load decrease. To translate the application of light therapies to an EVLP system, a specific device suitable to be inserted inline in the EVLP circuit where different light wavelengths could be applied to treat the perfusion solution.” left out

[2] = Pre-clinical large animal lung transplant safety model (EVLP 6 h, left lung transplant, 4 h reperfusion); assay type: in vivo, Yorkshire male domestic pigs; settings: PDT MB 1 umol/L + red light vs control and UVC
Procedure: In order to translate such approach to the clinical EVLP setting, the safety of applying UVC and PDT during EVLP was assessed using a pre-clinical large animal transplant model (FIG. 15D).
In this model, Yorkshire male domestic pigs (30-35 kg) were used, under anesthesia and mechanic ventilation. After lung withdrawal, lungs were preserved for 2 hours at 4° C., followed by EVLP for 6 hours. During EVLP, pig lungs were randomized for three groups (n=4, each): (1) Control (standard EVLP technique); (2) Ultra Violet C; (3) Photodynamic Therapy (PDT), using Methylene Blue (MB) diluted in the perfusion solution (1 umol/L) associated with red light irradiation. During EVLP, lung physiology was assessed (pulmonary vascular resistance, pulmonary artery pressure, left atrium (venous) pressure, peak airway pressure, plateau pressure, dynamic compliance, static compliance and gas exchange function-PO2); There was no difference in ex vivo lung function during 6 hours amongst the groups. After EVLP, the left lung was transplanted followed by 4 hours of reperfusion. Post-transplant blood gas samples were collected of the transplanted graft upper and lower pulmonary veins and the average of the partial pressure of arterial oxygen (PaO2)/fraction of inspired oxygen (FiO2) was calculated.

HCV JFH-1 strain = test: Mini-EVLP circuit spiked with HCV JFH-1, infectivity loss in Huh 7.5.1 hepatocyte culture
[3] = tested on: Staphylococcus aureus, Stenotrophomonas maltophilia, and Pseudomonas aeruginosa; settings: antibiotic 333 mg/L, LB Agar plates, UVC group 0
Procedure: Methods: A mixture of low-potassium-dextran lung perfusion solution and Lysogeny Broth (LB) media was spiked with 1,0×10^5 CFU/mL of Staphylococcus aureus, Stenotrophomonas maltophilia, and Pseudomonas aeruginosa. A mini EVLP and UVC irradiator was used (FIG. 7). After priming, the circuits were divided into three groups (n=4, each) and evaluated for 180 minutes: 1) Control (no treatment); 2) UVC (236 nm, 9 J/cm^2) and 3) Antibiotic (Imipenem/Cilastatin, 333 mg/L). Samples were taken at different timepoints and analysed, using LB Agar culture plates and bacterial DNA qPCR assay.

Compound: CN(C)c1ccc2nc3ccc(=[N+](C)C)cc-3sc2c1 [Methylene blue]
- decrease of HCV titers in human donor lungs (HCV; PDT using MB as photosensitizer, summary statement): 98%
- HCV titers in lung tissue, % reduction (HCV; PDT: methylene blue 1 umol/L + red light 630 nm, 20 mW/cm^2, 9 h EVLP, lung tissue, control 75.46%): 90.96%
- perfusate HCV titres (% reduction from baseline) (HCV; PDT: methylene blue 1 umol/L + red light 630 nm/20 mW/cm^2, 9 h EVLP, perfusate, control 69.49%): 97.87%
- ex vivo lung function during EVLP (delta P/F ratio, peak airway pressure, dynamic compliance) vs control lung [1]: no significant difference
- post-transplant PaO2/FiO2 after 4 h of reperfusion, among the groups ([2]; pig left lung transplant): no significant difference
- ex vivo lung function during 6 hours EVLP amongst the groups ([2]; pig lungs): no difference
- perfusion time after which no infectivity was observed (HCV JFH-1 strain; PDT group, red light 630 nm, 20 mW/cm^2, JFH-1 1.5×10^6 copies/mL, 37° C.): 15 min
- effect on HCV infectivity with ambient (room) light activation compared with red light (HCV JFH-1 strain; regular room light instead of red light): weaker than with red light

Compound: Imipenem/Cilastatin
- bacterial growth after 180 minutes of treatment [3]: 15±2.3 colonies/plate
